pIC50: −log10 of the molar value.
Molecular target: Calcium/calmodulin-dependent protein kinase type II subunit delta (Homo sapiens, UniProt Q13557)
Assay: Inhibition of human recombinant CAMK2delta using tetramethylbenzidine as substrate by spectrophotometry analysis

Chain of Calcium/calmodulin-dependent protein kinase type II subunit delta (Q13557 whole entry): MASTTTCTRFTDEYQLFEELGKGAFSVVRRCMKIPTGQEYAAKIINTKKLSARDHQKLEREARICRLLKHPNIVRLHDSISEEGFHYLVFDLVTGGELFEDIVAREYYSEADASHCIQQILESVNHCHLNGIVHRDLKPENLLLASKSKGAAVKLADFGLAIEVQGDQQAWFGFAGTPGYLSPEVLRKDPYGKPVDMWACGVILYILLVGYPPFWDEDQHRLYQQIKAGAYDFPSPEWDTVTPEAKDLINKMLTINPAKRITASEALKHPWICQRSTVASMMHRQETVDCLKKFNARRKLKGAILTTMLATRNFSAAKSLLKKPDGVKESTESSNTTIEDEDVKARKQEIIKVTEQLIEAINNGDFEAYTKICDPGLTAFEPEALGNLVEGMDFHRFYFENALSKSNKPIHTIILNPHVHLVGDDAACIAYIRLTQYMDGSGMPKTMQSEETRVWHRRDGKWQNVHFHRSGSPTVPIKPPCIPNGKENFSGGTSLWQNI

pIC50: 6.42
SMILES: CN([C@@H](Cc1ccc(OS(=O)(=O)c2cccc3cnccc23)cc1)C(=O)N1CCN(c2ccccc2)CC1)S(=O)(=O)c1cccc2cnccc12

From ChEMBL document CHEMBL1938361, “Elaborate ligand-based modeling and subsequent synthetic exploration unveil new nanomolar Ca2+/calmodulin-dependent protein kinase II inhibitory leads” (Bioorg Med Chem, 2012)
